This is an account of results in PubChem BioAssay AID248 (DTP/NCI, 2004).

Several values for one entry are separate records, joined by “and”; a condition that tells them apart may be missing. Identical values can stand only once. Inconclusive results and toxic doses are left out.

The assay concerns L1210 leukemia ip in BDF1 mice, survival T/C. The assay is described as follows: NCI In Vivo Anticancer Drug Screen. Data for tumor model L1210 Leukemia (intraperitoneal) in B6D2F1 (BDF1) mice. The note with it: endpoint: mean survival time, higher = longer survival. The method in brief: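 Mice bearing the transplanted tumor received compound or vehicle. Survival of the treated group was divided by that of the vehicle-treated control group to give the ratio.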

Setting [1] is: dose: 100.0 mg/kg/injection, schedule: Q01DX001 (ip), vehicle: saline.
Where [2] appears, read: dose: 100.0 mg/kg/injection, schedule: Q01DX009 (ip), vehicle: saline with Tween-80.
Setting [3] is: dose: 25.0 mg/kg/injection, schedule: Q04DX003 (ip), vehicle: saline with Tween-80.
Setting [4] is: dose: 50.0 mg/kg/injection, schedule: Q04DX003 (ip), vehicle: saline with Tween-80.
Where [5] appears, read: dose: 100.0 mg/kg/injection, schedule: Q04DX003 (ip), vehicle: saline with Tween-80.

In the case of `CSc1cc(C(=O)Nc2ccc(C3=NCCN3)cc2)cc(C(=O)Nc2ccc(C3=NCCN3)cc2)c1`, the T/C was 110 % of control (dose: 2.75 mg/kg/injection, schedule: Q01DX Z (ip), vehicle: carboxymethylcellulose (CMC)); 102 % of control (dose: 5.5 mg/kg/injection, schedule: Q01DX Z (ip), vehicle: carboxymethylcellulose (CMC)); 96 % of control (dose: 11.0 mg/kg/injection, schedule: Q01DX Z (ip), vehicle: carboxymethylcellulose (CMC)); 119 % of control (dose: 22.0 mg/kg/injection, schedule: Q01DX Z (ip), vehicle: carboxymethylcellulose (CMC)); 225 % of control (dose: 31.0 mg/kg/injection, schedule: Q01DX Z (ip), vehicle: carboxymethylcellulose (CMC)); 174 % of control (dose: 45.0 mg/kg/injection, schedule: Q01DX Z (ip), vehicle: carboxymethylcellulose (CMC)). Moreover, the T/C reads like this: (dose: 62.0 mg/kg/injection, schedule: Q01DX Z (ip), vehicle: carboxymethylcellulose (CMC)) 242 % of control; (dose: 90.0 mg/kg/injection, schedule: Q01DX Z (ip), vehicle: carboxymethylcellulose (CMC)) 168 % of control; (dose: 125.0 mg/kg/injection, schedule: Q01DX Z (ip), vehicle: carboxymethylcellulose (CMC)) 165 % of control; (dose: 180.0 mg/kg/injection, schedule: Q01DX Z (ip), vehicle: carboxymethylcellulose (CMC)) 256 % of control; (dose: 250.0 mg/kg/injection, schedule: Q01DX Z (ip), vehicle: carboxymethylcellulose (CMC)) 157 % of control; (dose: 360.0 mg/kg/injection, schedule: Q01DX Z (ip), vehicle: carboxymethylcellulose (CMC)) 100 % of control.

In the case of `Clc1ccc2c(c1)C1=NCCCN1c1cc(Cl)ccc1-2`, the T/C (dose: 2.5 mg/kg/injection, schedule: Q01DX009 (ip), vehicle: saline) was 105 % of control; the T/C (dose: 2.5 mg/kg/injection, schedule: Q04DX002 (ip), vehicle: saline) was 100 % of control; the T/C (dose: 2.5 mg/kg/injection, schedule: Q04DX003 (ip), vehicle: Klucel (hydroxypropylcellulose) (HPC)) is 102 % of control; the T/C (dose: 5.0 mg/kg/injection, schedule: Q01DX009 (ip), vehicle: saline) is 97 % of control; the T/C (dose: 5.0 mg/kg/injection, schedule: Q04DX002 (ip), vehicle: saline) is 96 % of control; the T/C (dose: 5.0 mg/kg/injection, schedule: Q04DX003 (ip), vehicle: Klucel (hydroxypropylcellulose) (HPC)) is 104 % of control. In addition, the T/C by setting is: (dose: 10.0 mg/kg/injection, schedule: Q01DX009 (ip), vehicle: saline) 97 % of control; (dose: 10.0 mg/kg/injection, schedule: Q04DX002 (ip), vehicle: saline) 111 % of control; (dose: 10.0 mg/kg/injection, schedule: Q04DX003 (ip), vehicle: Klucel (hydroxypropylcellulose) (HPC)) 104 % of control; (dose: 20.0 mg/kg/injection, schedule: Q04DX003 (ip), vehicle: Klucel (hydroxypropylcellulose) (HPC)) 91 % of control.

In the case of `O=C1c2ccccc2-c2c3c(cc4ccnc1c24)OCO3`, the T/C was 93 % of control (dose: 100.0 mg/kg/injection, schedule: Q01DX001 (ip), vehicle: Klucel (hydroxypropylcellulose) (HPC)); 96 % of control (dose: 200.0 mg/kg/injection, schedule: Q01DX001 (ip), vehicle: Klucel (hydroxypropylcellulose) (HPC)); 100 % of control (dose: 400.0 mg/kg/injection, schedule: Q01DX001 (ip), vehicle: Klucel (hydroxypropylcellulose) (HPC)).

Turning to `c1ccc2c(C3CCCCN3)c[nH]c2c1` (stereo not given), the T/C reads like this: (dose: 12.5 mg/kg/injection, schedule: Q01DX009 (ip), vehicle: saline) 88 % of control; (dose: 25.0 mg/kg/injection, schedule: Q01DX009 (ip), vehicle: saline) 90 % of control; (dose: 25.0 mg/kg/injection, schedule: Q04DX003 (ip), vehicle: saline) 103 % of control; (dose: 50.0 mg/kg/injection, schedule: Q04DX003 (ip), vehicle: saline) 92 % of control; under setting [1], 97 % of control.

On to `COc1ccc(OC)c2[nH]c(=O)c(CCC(=O)O)nc12`, for which the T/C is, setting by setting: (dose: 100.0 mg/kg/injection, schedule: Q04DX003 (ip), vehicle: other) 96 % of control; (dose: 200.0 mg/kg/injection, schedule: Q04DX003 (ip), vehicle: other) 96 % of control.

Regarding `CCC(C)C(C)(CO)CO` (stereo not given), the T/C was 102 % of control under setting [2]; 90 % of control (dose: 100.0 mg/kg/injection, schedule: Q04DX003 (ip), vehicle: saline); 88 % of control (dose: 200.0 mg/kg/injection, schedule: Q01DX009 (ip), vehicle: saline with Tween-80); 93 % of control (dose: 200.0 mg/kg/injection, schedule: Q04DX003 (ip), vehicle: saline); 89 % of control (dose: 400.0 mg/kg/injection, schedule: Q01DX009 (ip), vehicle: saline with Tween-80); 97 % of control (dose: 400.0 mg/kg/injection, schedule: Q04DX003 (ip), vehicle: saline).

`CCC1(CC2CCCN(C)C2)c2ccccc2Sc2ccccc21` (stereo not given): the T/C reads like this: (dose: 8.0 mg/kg/injection, schedule: Q01DX015 (ip), vehicle: carboxymethylcellulose (CMC)) 105 % of control; (dose: 16.0 mg/kg/injection, schedule: Q01DX015 (ip), vehicle: carboxymethylcellulose (CMC)) 94 % of control; (dose: 32.0 mg/kg/injection, schedule: Q01DX015 (ip), vehicle: carboxymethylcellulose (CMC)) 91 % of control; (dose: 64.0 mg/kg/injection, schedule: Q01DX015 (ip), vehicle: carboxymethylcellulose (CMC)) 103 % of control and 110 % of control.

Regarding `O=C(Nc1ccc(NC(=O)Nc2cccc(C3=NCCCN3)c2)cc1)Nc1cccc(C2=NCCCN2)c1`, the T/C runs as follows: (dose: 6.25 mg/kg/injection, schedule: Q01DX Z (ip), vehicle: carboxymethylcellulose (CMC)) 101 % of control; (dose: 8.0 mg/kg/injection, schedule: Q01DX Z (oral), vehicle: carboxymethylcellulose (CMC)) 104 % of control; (dose: 12.5 mg/kg/injection, schedule: Q01DX Z (ip), vehicle: carboxymethylcellulose (CMC)) 102 % of control; (dose: 16.0 mg/kg/injection, schedule: Q01DX Z (oral), vehicle: carboxymethylcellulose (CMC)) 95 % of control; (dose: 31.0 mg/kg/injection, schedule: Q01DX Z (oral), vehicle: carboxymethylcellulose (CMC)) 97 % of control; (dose: 50.0 mg/kg/injection, schedule: Q01DX Z (ip), vehicle: carboxymethylcellulose (CMC)) 157 % of control. Moreover, the T/C (dose: 62.0 mg/kg/injection, schedule: Q01DX Z (oral), vehicle: carboxymethylcellulose (CMC)) was 103 % of control; the T/C (dose: 125.0 mg/kg/injection, schedule: Q01DX Z (oral), vehicle: carboxymethylcellulose (CMC)) was 106 % of control; the T/C (dose: 250.0 mg/kg/injection, schedule: Q01DX Z (oral), vehicle: carboxymethylcellulose (CMC)) is 105 % of control; the T/C (dose: 500.0 mg/kg/injection, schedule: Q01DX Z (oral), vehicle: carboxymethylcellulose (CMC)) is 106 % of control.

As for `Clc1ccc(OCc2sc3ccc(Cl)cc3c2CN2CCCCC2)cc1`, the T/C was 88 % of control under setting [3]; 87 % of control under setting [4]; 90 % of control and 92 % of control under setting [5].

As for `CC(=O)/C(=C\c1ccc(N(C)C)cc1)C(C)=[N+](C)C(=O)c1c(/[N+](C)=C(C)\C(=C\c2ccc(N(C)C)cc2)C(C)=O)ncn1C`, the T/C runs as follows: (dose: 50.0 mg/kg/injection, schedule: Q01DX001 (ip), vehicle: saline) 103 % of control; under setting [1], 103 % of control and 90 % of control; (dose: 200.0 mg/kg/injection, schedule: Q01DX001 (ip), vehicle: saline) 97 % of control and 118 % of control.

As for `CNC(=O)Oc1c([N+](=O)[O-])cc([N+](=O)[O-])c2ccccc12`, the T/C runs as follows: (dose: 75.0 mg/kg/injection, schedule: Q01DX001 (ip), vehicle: other) 111 % of control; (dose: 150.0 mg/kg/injection, schedule: Q01DX001 (ip), vehicle: other) 102 % of control.

Consider `O=C(O)/C=C(/C(=O)O)c1cccn1Cc1ccccc1`, for which the T/C is 110 % of control (dose: 25.0 mg/kg/injection, schedule: Q01DX009 (ip), vehicle: saline with Tween-80); 100 % of control (dose: 50.0 mg/kg/injection, schedule: Q01DX009 (ip), vehicle: saline with Tween-80); 102 % of control under setting [2].

In the case of `CC1CC(C)(C)N=C(C(Cc2ccccc2)CC(O)c2ccccc2)O1` (stereo not given), the T/C was 94 % of control under setting [3]; 92 % of control under setting [4]; 86 % of control and 90 % of control under setting [5].

With `Cn1c(=O)c2[nH]c(-c3ccc4c(c3)OCO4)nc2n(C)c1=O`, the T/C (dose: 50.0 mg/kg/injection, schedule: Q01DX001 (ip), vehicle: other) is 95 % of control; the T/C (dose: 100.0 mg/kg/injection, schedule: Q01DX001 (ip), vehicle: other) is 97 % of control; the T/C (dose: 200.0 mg/kg/injection, schedule: Q01DX001 (ip), vehicle: other) was 95 % of control; the T/C (dose: 400.0 mg/kg/injection, schedule: Q01DX001 (ip), vehicle: other) was 86 % of control.
